Measured values: patent US5017689A, “Dynorphin analogs specific for kappa opioid receptors” (Arizona Technology Development Corporation, priority 1989, dated 1991)
Where two headings read alike, the source gives them in different places. Bridge positions count the residues as written; N and C are the ends. Peptide text beside a SMILES is read from it.

Experiments:
κ opioid receptors = biological target: T1, κ opioid receptors (Cavia porcellus, UniProt P41144); assay: Radioligand binding, inhibition of [3H]U-69593 binding to guinea pig brain membrane
T1 construct: from tissue; host or cells: whole guinea pig brain membranes
T1 sequence (P41144 whole entry): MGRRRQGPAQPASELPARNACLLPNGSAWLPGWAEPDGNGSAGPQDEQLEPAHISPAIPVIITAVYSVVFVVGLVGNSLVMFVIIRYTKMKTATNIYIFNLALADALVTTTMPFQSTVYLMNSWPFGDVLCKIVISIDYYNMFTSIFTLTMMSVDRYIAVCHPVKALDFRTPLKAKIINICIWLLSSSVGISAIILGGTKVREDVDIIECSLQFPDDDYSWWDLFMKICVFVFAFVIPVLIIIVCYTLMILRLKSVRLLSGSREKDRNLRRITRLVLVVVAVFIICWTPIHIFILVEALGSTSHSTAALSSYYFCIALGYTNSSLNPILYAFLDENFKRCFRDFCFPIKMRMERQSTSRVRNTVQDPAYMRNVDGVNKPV
Procedure: (§2) Samples were incubated for 1.0 h at 25° C. before filtration through glass fiber filter strips (GF/B, Whatman) pretreated with 0.1% polyethylenimine. Nonspecific binding (=20% of total binding) was defined as binding measured in the presence of 1.0 μM Dyn A1-13.

δ opioid receptors = biological target: T2, δ opioid receptors (Rattus norvegicus, UniProt P33533); assay: Radioligand binding, [3H]DPDPE, brain membranes; conditions: rat brain homogenate, 1.0 nM radioligand
T2 construct: membranes prepared from whole rat brain (less cerebellum); from tissue; host or cells: whole rat brain (less cerebellum) membranes
T2 sequence (P33533 whole entry): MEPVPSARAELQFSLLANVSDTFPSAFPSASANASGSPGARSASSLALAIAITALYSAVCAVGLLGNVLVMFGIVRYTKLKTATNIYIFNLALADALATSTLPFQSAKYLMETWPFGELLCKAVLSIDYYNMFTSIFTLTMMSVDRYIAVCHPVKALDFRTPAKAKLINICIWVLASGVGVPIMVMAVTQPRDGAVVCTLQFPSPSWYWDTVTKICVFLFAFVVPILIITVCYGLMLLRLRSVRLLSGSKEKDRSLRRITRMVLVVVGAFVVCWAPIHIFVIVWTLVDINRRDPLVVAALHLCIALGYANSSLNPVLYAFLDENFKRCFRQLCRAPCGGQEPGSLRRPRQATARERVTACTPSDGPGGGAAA
Procedure: as §2

μ opioid receptors = μ opioid receptors (Rattus norvegicus, UniProt P33535); assay: biochemical
μ opioid receptors, sequence (P33535 whole entry): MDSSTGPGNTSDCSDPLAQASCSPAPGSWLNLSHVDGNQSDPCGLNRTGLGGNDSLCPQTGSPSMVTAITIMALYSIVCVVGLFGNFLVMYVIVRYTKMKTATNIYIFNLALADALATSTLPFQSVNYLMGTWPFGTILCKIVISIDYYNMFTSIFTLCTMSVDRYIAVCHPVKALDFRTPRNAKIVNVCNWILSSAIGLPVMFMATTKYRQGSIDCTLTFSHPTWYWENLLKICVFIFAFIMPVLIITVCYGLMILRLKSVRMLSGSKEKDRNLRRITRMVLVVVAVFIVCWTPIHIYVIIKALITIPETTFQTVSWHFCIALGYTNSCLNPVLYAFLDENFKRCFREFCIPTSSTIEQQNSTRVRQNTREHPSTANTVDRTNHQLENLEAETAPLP

[1] = test system: guinea pig ileum (GPI) longitudinal muscle/myenteric plexus preparation; assay: Guinea pig ileum (GPI) longitudinal muscle/myenteric plexus bioassay; format: cell-based
Procedure: The known guinea pig ileum (GPI) longitudinal muscle/myenteric plexus preparation was used for in vitro bioassays (Kosterlitz, H.W., Lydon, R.J., and Watt, A.J., (1970), Br. J. Pharmacol., 39, 398-413). The tissues were suspended under a final tension of 1 g in organ baths, bathed with Krebs buffer (NaCl 118 mM, KCl 4.7 mM, CaCl2 2.5 mM, KH2 PO4 1.19 mM, MgSO4 1.18 mM, NaHCO3 25 mM, and glucose 11.48 mM), maintained at 37° C. and aerated with 95% O2 /5% CO2. Electrical stimuli were 0.4 msec pulses of supramaximal voltage, at a rate 6/min. Isometric contractions were measured via strain gauge force transducers on chart recorders. The mouse vas deferens (MVD) preparation was also performed as described by Hughes et al. (Hughes, J., Kosterlitz, H.W., and Leslie, F.M., (1975), Br. J. Pharmacol., 53, 371-381). The Krebs buffer was made as above, but without magnesium and the tissues were suspended under a final tension of 500 mg. Pulse duration was 2 msec. Dose-response testing in all preparations was carried out in a cumulative fashion. The compounds were tested for intrinsic agonist activity in the two in vitro bioassays. […] Ke values were calculated according to the formula: […]
(§1) where [Ant] is the concentration of the antagonist, and DR is the dose ratio (i.e., IC50 after antagonism divided by the IC50 before antagonist activity was measured).

[2] = test system: mouse vas deferens (MVD) preparation; assay: Mouse vas deferens (MVD) bioassay; format: cell-based
Procedure: The known guinea pig ileum (GPI) longitudinal muscle/myenteric plexus preparation was used for in vitro bioassays (Kosterlitz, H.W., Lydon, R.J., and Watt, A.J., (1970), Br. J. Pharmacol., 39, 398-413). The tissues were suspended under a final tension of 1 g in organ baths, bathed with Krebs buffer (NaCl 118 mM, KCl 4.7 mM, CaCl2 2.5 mM, KH2 PO4 1.19 mM, MgSO4 1.18 mM, NaHCO3 25 mM, and glucose 11.48 mM), maintained at 37° C. and aerated with 95% O2 /5% CO2. Electrical stimuli were 0.4 msec pulses of supramaximal voltage, at a rate 6/min. Isometric contractions were measured via strain gauge force transducers on chart recorders. The mouse vas deferens (MVD) preparation was also performed as described by Hughes et al. (Hughes, J., Kosterlitz, H.W., and Leslie, F.M., (1975), Br. J. Pharmacol., 53, 371-381). The Krebs buffer was made as above, but without magnesium and the tissues were suspended under a final tension of 500 mg. Pulse duration was 2 msec. Dose-response testing in all preparations was carried out in a cumulative fashion. The compounds were tested for intrinsic agonist activity in the two in vitro bioassays. Thus, concentrations showing intrinsic activity for each analog were tested in the presence of naloxone (1000 nM) to define opioid activity. To further define the opioid selectivity of the agonist effect, the δ selective antagonist ICI 174,864 (Cotton, R., Giles, M.G., Miller, L., Shaw, J.S., and Timms, D. (1984), Eur. J. Pharmacol., 97, 331-332) was utilized in the MVD, and the μ selective antagonists CTAP (Pelton, J.T., Kazmierski, W., Gulya, K., Yamamura, H.I., and Hruby, V.J. (1986), J. Med. Chem., 29, 2370-2375) or CTP (Pelton, J.T., Gulya, K., Hruby, V.J., Duckles, S., and Yamamura, H.I. (1985) Proc. Natl. Acad. Sci. U.S.A., 82, 236-239) were employed in the GPI, all at 1000 nM. Ke values were calculated according to the formula: […]
as §1

kappa opioid receptor = conditions: cited from earlier work
[3] = administered i.c.v.; cited from earlier work
[4] = administered i.c.v.; cited from earlier work; remark: listed apart in the source
[5] = selectivity, ratio of IC50 values

| Compound | IC50 (κ opioid receptors) | IC50 (δ opioid receptors) | IC50 (μ opioid receptors) | other results |
| --- | --- | --- | --- | --- |
| CC[C@H](C)[C@@H]1NC(=O)[C@H](CCCN=C(N)N)NC(=O)[C@H](CCCN=C(N)N)NC(=O)[C@@H](NC(=O)[C@H](Cc2ccccc2)NC(=O)CNC(=O)CNC(=O)[C@@H](N)Cc2ccc(O)cc2)CSSC[C@@H](C(N)=O)NC(=O)[C@@H]2CCCN2C(=O)[C@H](CCCN=C(N)N)NC1=O [Compound 1] (H-YGGFCRRIRPC-NH2; disulfide 5-11) | 0.39 ± 0.06 nM | 18.6 ± 7.5 nM | 2.3 ± 0.72 nM |  |
| C[C@H]1NC(=O)[C@H](CCCNC(=N)N)NC(=O)[C@H](CCCNC(=N)N)NC(=O)[C@@H](NC(=O)[C@H](Cc2ccccc2)NC(=O)CNC(=O)CNC(=O)[C@@H](N)Cc2ccc(O)cc2)CSSC[C@@H](C(N)=O)NC(=O)[C@@H]2CCCN2C(=O)[C@H](CCCNC(=N)N)NC1=O [Compound 2] | 0.28 ± 0.036 nM | 1.63 ± 0.53 nM | 0.27 ± 0.14 nM |  |
| CC(C)C[C@@H]1NC(=O)[C@H](CCCCN)NC(=O)[C@@H]2CCCN2C(=O)[C@H](CCCN=C(N)N)NC(=O)[C@@H](NC(=O)[C@H](CCCN=C(N)N)NC(=O)[C@H](CCCN=C(N)N)NC(=O)[C@H](CC(C)C)NC(=O)[C@H](Cc2ccccc2)NC(=O)CNC(=O)CNC(=O)[C@@H](N)Cc2ccc(O)cc2)CSSC[C@@H](C(N)=O)NC1=O [Compound 3] |  | 3.97 ± 0.96 nM | 0.98 ± 0.12 nM |  |
| CC(C)C[C@@H]1NC(=O)[C@H](CCCCN)NC(=O)[C@@H]2CCCN2C(=O)[C@H](CCCNC(=N)N)NC(=O)[C@H](NC(=O)[C@H](CCCNC(=N)N)NC(=O)[C@H](CCCNC(=N)N)NC(=O)[C@H](CC(C)C)NC(=O)[C@H](Cc2ccccc2)NC(=O)CNC(=O)CNC(=O)[C@@H](N)Cc2ccc(O)cc2)CSSC[C@@H](C(N)=O)NC1=O [Compound 4] |  | 104 ± 1.86 nM | 10.3 ± 3.9 nM |  |
| CC(C)C[C@H](NC(=O)[C@H](Cc1ccccc1)NC(=O)CNC(=O)CNC(=O)[C@@H](N)Cc1ccc(O)cc1)C(=O)N[C@@H](CCCNC(=N)N)C(=O)N[C@@H](CCCNC(=N)N)C(=O)N[C@@H]1CSSC[C@H](C(N)=O)NC(=O)[C@H](CC(C)C)NC(=O)[C@H](CCCCN)NC(=O)[C@@H]2CCCN2C(=O)[C@H](CCCNC(=N)N)NC1=O [Compound 5] |  |  |  | δ/κ (κ opioid receptors; [5]): 130; μ/κ (κ opioid receptors; [5]): 3; IC50 (κ opioid receptors; κ, guinea pig brain homogenate, 1.0 nM radioligand, read-out: IC50 (nM) [3H]-U-69,593): 0.11 ± 0.009 nM; IC50 [1]: 1.75 nM; Ke (nM) for: NLX ([1]; naloxone 1000 nM): 233 nM; IC50 [2]: 19.5 nM; Ke (nM) for: NLX ([2]; naloxone 1000 nM): 18.2 nM; Ke (nM) for: ICI ([2]; δ antagonist ICI 174,864 1000 nM): 1000 nM; Ke (nM) for: CTAP ([2]; μ antagonist CTAP 1000 nM): 1430 nM |
| CC[C@H](C)[C@H](NC(=O)[C@H](CCCNC(=N)N)NC(=O)[C@H](CCCNC(=N)N)NC(=O)[C@H](CC(C)C)NC(=O)[C@H](Cc1ccccc1)NC(=O)CNC(=O)CNC(=O)[C@@H](N)Cc1ccccc1)C(=O)N[C@@H](CCCNC(=N)N)C(=O)N1CCC[C@@H]1C(=O)N[C@@H](CCCCN)C(N)=O [Compound 6, [Phe^1, D-Pro^10]Dyn A1-11NH2] | 2.4 ± 0.56 nM | 390 ± 52 nM | 120 ± 22 nM |  |
| CC(C)C[C@H](NC(=O)[C@H](Cc1ccccc1)NC(=O)CNC(=O)CNC(=O)[C@@H](N)Cc1ccc(Br)cc1)C(=O)N[C@@H](CCCNC(=N)N)C(=O)N[C@@H](CCCNC(=N)N)C(=O)N[C@H](C)C(=O)N[C@@H](CCCNC(=N)N)C(=O)N1CCC[C@H]1C(=O)N[C@@H](CCCCN)C(N)=O [Compound 7, [p-BrPhe^1, D-Ala^8]Dyn A1-11NH2] | 1.7 ± 0.14 nM | 1060 ± 40 nM | 47 ± 5.1 nM |  |
| CC[C@H](C)[C@H](NC(=O)[C@H](CCCN=C(N)N)NC(=O)[C@H](CCCN=C(N)N)NC(=O)[C@H](CC(C)C)NC(=O)[C@H](Cc1ccccc1)NC(=O)CNC(=O)CNC(=O)[C@@H](N)Cc1ccc(O)cc1)C(=O)N[C@@H](CCCN=C(N)N)C(=O)N1CCC[C@H]1C(=O)N[C@@H](CCCCN)C(=O)N[C@@H](CC(C)C)C(=O)N[C@@H](CCCCN)C(N)=O [Dyn A1-13NH2, reference compound] | 0.109 ± 0.003 nM | 2.96 nM | 1.33 nM |  |
| [D-pro^10 ]Dyn A1-11 -OH [DPDYN] |  |  |  | reported binding affinity (kappa opioid receptor; against the kappa ligand [3H]Bremazocine): about 0.032 nM; κ vs. μ and κ vs δ selectivities (kappa opioid receptor): high; activity against thermal stimulus [3]: did not show any activity; effect against chemical pain [4]: dose-related effect |
